Test system: human precision cut liver slices (PCLS)
Experiment: RNA-Seq of PCLS, Nonstimulation Protocol (Non-stimulated + CRV vs Non-stimulated + Vehicle)
Assay type: cell-based
Procedure: PCLS were obtained from 5 human donors who underwent resection of liver cancer. Replicate slices were collected from healthy margins of the resections and cultured for 4 or 6 days depending on the experimental protocol. In the Nonstimulation Protocol slices were cultured for 6 days and treated for the entire period with DMSO vehicle or 5 μM CRV431. In the Stimulation Protocol slices were rested for 1 day and then administered the cytokines, TGFβ and PDGF-BB, for 3 days to stimulate inflammation and fibrosis. DMSO vehicle, CRV431 (1 and 5 μM), Alk5i (10 μM), obeticholic acid (5 μM), elafibranor (5 μM), resmetirom (5 μM), and Aramchol (5 μM) were administered individually as drug treatments in the Stimulation Protocol concurrent with TGFβ+PDGF-BB. Culture medium treatments were replaced daily.
(d) Gene expression by RNA-Seq. RNA sequencing of the complete transcriptome (30 million reads per sample) was conducted on vehicle and 5 μM CRV431 treatment groups from 3 donors both from the Nonstimulation and Stimulation Protocols. Data were analyzed by bioinformatics software programs to identify genes that were differentially expressed between vehicle and CRV431 treatments.
For the evaluation done for (d), 12 samples corresponding to 3 different donor slides which underwent 4 different treatments were studied. the comparisons carried out in this analysis are: (1) TGFb/PDGF+CRV vs TGFb/PDGF+Vehicle (V), and (2) Non-stimulated+CRV vs Non-stimulated+Vehicle.
Heatmaps were generated by plotting significant differently expressed genes for the comparison Non-stimulated+CRV and Non-stimulated+Vehicle (p-adjust<0.05, log fold change>0.5). First, the heatmap with the samples grouped by group (FIG. 7A) is shown in order to observe the different expression pattern present within the group (blue=vehicle; red=CRV). Then, the same significant genes arweree plotted into a heatmap (FIG. 7B), but the samples are now plotted grouped by donor in order to observe the differences between donors (blue=vehicle; red=CRV).
Significant differently expressed genes that were identified in the comparison Non-stimulated+CRV and Non-stimulated+Vehicle ([…], log fold change>0.5) are provided in Table 3. The fold changes shown are relative to the treatment CRV.
Nonstimulated+CRV431 vs Nonstimulated+Vehicle were then compared by donor. As shown in the PCA, there was a strong effect of the donor. Therefore, the analysis was repeated as in the previous comparison. […] In other words, there were at least 300 copies more in the treatment CRV than in the vehicle. After doing this selection individually for each donor, a venn diagram was plotted showing the overlapping between all three donors. […] So, there are at least 300 copies less in the treated group compared to the vehicle. After doing the selection individually for each donor, a venn diagram was plotted showing the overlapping between all three donors.

[1] = Non-stimulated + CRV vs Non-stimulated + Vehicle, 5 μM
[2] = absence of TGFβ+PDGF-BB, all donors

CC[C@@H]1NC(=O)[C@H]([C@H](O)[C@H](C)CCCCCCNC(C)=O)N(C)C(=O)[C@H](C(C)C)N(C)C(=O)[C@H](CC(C)C)N(C)C(=O)[C@H](CC(C)C)N(C)C(=O)[C@@H](C)NC(=O)[C@H](C)NC(=O)[C@H](CC(C)C)N(C)C(=O)[C@H](C(C)C)NC(=O)[C@H](CC(C)C)N(C)C(=O)[C@@H](C)N(C)C1=O [CRV431] was tested, and the “log2FoldChange, gene AC099668.1” value [1] was 1.056, the “log2FoldChange, gene ACOT9” value [1] was 0.543 and the “log2FoldChange, gene ADGRD1” value [1] was −1.126. The “log2FoldChange, gene AFG1L” value [1] was 1.327, the “log2FoldChange, gene AGT” value [1] was −0.627 and the “log2FoldChange, gene AKAP10” value [1] was −1.249. For the same compound, the “log2FoldChange, gene ALPK3” value [1] was −0.621, the “log2FoldChange, gene AP000347.1” value [1] was 1.809 and the “log2FoldChange, gene AP003119.3” value [1] was −0.67. For the same compound, the “log2FoldChange, gene APBA1” value [1] was −1.158, the “log2FoldChange, gene AREG” value [1] was 1.034 and the “log2FoldChange, gene ARVCF” value [1] was −0.609. For the same compound, the “log2FoldChange, gene C4B” value [1] was −0.506, the “log2FoldChange, gene CACUL1” value [1] was −0.94 and the “log2FoldChange, gene CCDC149” value [1] was 0.76. The “log2FoldChange, gene CCNK” value [1] was 0.545, the “log2FoldChange, gene CD5L” value [1] was 1.675 and the “log2FoldChange, gene CD180” value [1] was 1.051. The “log2FoldChange, gene CDH11” value [1] was −0.915, the “log2FoldChange, gene COL27A1” value [1] was −0.545 and the “log2FoldChange, gene CXCL5” value [1] was 0.663. For the same compound, the “log2FoldChange, gene CXCL12” value [1] was 0.623, the “log2FoldChange, gene CYP3A4” value [1] was −2.313 and the “log2FoldChange, gene CYP24A1” value [1] was −1.499. For the same compound, the “log2FoldChange, gene DAAM2” value [1] was 1.498, the “log2FoldChange, gene DANCR” value [1] was 0.693 and the “log2FoldChange, gene DDX60” value [1] was −0.739. For the same compound, the “log2FoldChange, gene DGKD” value [1] was −0.85, the “log2FoldChange, gene DKK1” value [1] was 1.939 and the “log2FoldChange, gene DNAJB9” value [1] was 0.721. The “log2FoldChange, gene DUS3L” value [1] was 0.745, the “log2FoldChange, gene ESM1” value [1] was −1.157 and the “log2FoldChange, gene FANCI” value [1] was −1.319. The “log2FoldChange, gene FSTL1” value [1] was −0.595, the “log2FoldChange, gene GDPD5” value [1] was −0.606 and the “log2FoldChange, gene GEM” value [1] was −0.975. The “log2FoldChange, gene GMPPA” value [1] was 0.768, the “log2FoldChange, gene GMPPB” value [1] was 0.715 and the “log2FoldChange, gene GOLGA8A” value [1] was −0.669. For the same compound, the “log2FoldChange, gene GYG1” value [1] was 0.94, the “log2FoldChange, gene HID1” value [1] was 0.716 and the “log2FoldChange, gene HLA-F” value [1] was −0.727. The “log2FoldChange, gene HM13” value [1] was 0.528, the “log2FoldChange, gene HOOK1” value [1] was −0.998 and the “log2FoldChange, gene IFI6” value [1] was −1.273. The “log2FoldChange, gene IFI44L” value [1] was −2.254, the “log2FoldChange, gene IFIT2” value [1] was −0.812 and the “log2FoldChange, gene ISLR” value [1] was −0.815. The “log2FoldChange, gene KAT14” value [1] was 0.874, the “log2FoldChange, gene KIAA0513” value [1] was −0.98 and the “log2FoldChange, gene KRT7” value [1] was 0.563. The “log2FoldChange, gene KRT81” value [1] was 1.137, the “log2FoldChange, gene L3MBTL1” value [1] was −2.03 and the “log2FoldChange, gene LGALS3BP” value [1] was −0.556. For the same compound, the “log2FoldChange, gene LILRB4” value [1] was 0.909, the “log2FoldChange, gene LILRB5” value [1] was 1.075 and the “log2FoldChange, gene MANF” value [1] was 0.682. For the same compound, the “log2FoldChange, gene MEG3” value [1] was −0.682, the “log2FoldChange, gene MIR194-2HG” value [1] was −2.973 and the “log2FoldChange, gene MLLT10” value [1] was −1.19. The “log2FoldChange, gene MPEG1” value [1] was 0.584, the “log2FoldChange, gene MS4A4A” value [1] was 0.735 and the “log2FoldChange, gene MT-CO1” value [1] was −1.083. The “log2FoldChange, gene MTCO1P12” value [1] was −1.183, the “log2FoldChange, gene NCOA3” value [1] was −1.438 and the “log2FoldChange, gene NOTCH3” value [1] was −0.564. For the same compound, the “log2FoldChange, gene NREP” value [1] was −0.638, the “log2FoldChange, gene NUCB2” value [1] was 0.851 and the “log2FoldChange, gene NUGGC” value [1] was 1.136. The “log2FoldChange, gene NUMA1” value [1] was −0.537, the “log2FoldChange, gene PALM2-AKAP2” value [1] was −1.035 and the “log2FoldChange, gene PAN2” value [1] was 0.742. The “log2FoldChange, gene PDE4C” value [1] was −0.669, the “log2FoldChange, gene PDZD2” value [1] was −1.468 and the “log2FoldChange, gene PEG10” value [1] was 1.463. The “log2FoldChange, gene PFKFB3” value [1] was −0.545, the “log2FoldChange, gene PGM3” value [1] was 0.751 and the “log2FoldChange, gene PLTP” value [1] was −0.584. The “log2FoldChange, gene PLXNA2” value [1] was 1.719, the “log2FoldChange, gene POU2F2” value [1] was 2.856 and the “log2FoldChange, gene R3HDM2” value [1] was −0.678. The “log2FoldChange, gene RAD51D” value [1] was 1.387, the “log2FoldChange, gene RARRES2” value [1] was −0.766 and the “log2FoldChange, gene RFX1” value [1] was −1.495. For the same compound, the “log2FoldChange, gene SCRIB” value [1] was 0.661, the “log2FoldChange, gene SEC11C” value [1] was 0.844 and the “log2FoldChange, gene SEC24D” value [1] was 0.58. The “log2FoldChange, gene SEC61B” value [1] was 0.602, the “log2FoldChange, gene SELL” value [1] was 2.035 and the “log2FoldChange, gene SERPINB2” value [1] was 1.255. For the same compound, the “log2FoldChange, gene SIPA1L3” value [1] was −0.652, the “log2FoldChange, gene SKI” value [1] was −0.931 and the “log2FoldChange, gene SLC2A1” value [1] was −0.635. For the same compound, the “log2FoldChange, gene SLC29A1” value [1] was −0.53, the “log2FoldChange, gene SNHG3” value [1] was 0.665 and the “log2FoldChange, gene SOWAHC” value [1] was −0.601. The “log2FoldChange, gene SPCS3” value [1] was 0.715, the “log2FoldChange, gene SRGAP2B” value [1] was −0.729 and the “log2FoldChange, gene SSR4” value [1] was 0.564. The “log2FoldChange, gene STX16” value [1] was 0.577, the “log2FoldChange, gene SYNGAP1” value [1] was −1.718 and the “log2FoldChange, gene SYNRG” value [1] was −0.74. The “log2FoldChange, gene TMEM154” value [1] was −1.351, the “log2FoldChange, gene TNFSF14” value [1] was −0.681 and the “log2FoldChange, gene TRPV6” value [1] was 0.83. For the same compound, the “log2FoldChange, gene TTLL3” value [1] was −0.579, the “log2FoldChange, gene UHRF2” value [1] was −0.778 and the “log2FoldChange, gene UNKL” value [1] was −0.916. The “log2FoldChange, gene WNK1” value [1] was −0.698, the “log2FoldChange, gene XAF1” value [1] was −0.725 and the “fold change in RNA, DKK1” value [2] was “+3.8 fold”. The “fold change in RNA, ESM1” value [2] was −2.2 fold, the “fold change in RNA, IFI44L” value [2] was −4.8 fold and the “fold change in RNA, NCOA3” value [2] was −2.7 fold. For the same compound, the “fold change in RNA, mIR-194-2” value [2] was −7.9 fold.
